How the values were obtained:
Type in all cases: biochemical
PDE1A = target: T1, PDE1A (Homo sapiens, UniProt P54750); assay: Inhibition of PDE1A
T1 construct: Plasmid pBB-PDE1A3/6 contained the complete open reading frame of PDE1A3; made in house; host or cells: Sf9 (baculovirus)

PDE2 = target: T2, PDE2 (Homo sapiens, UniProt O00408); assay: Inhibition of PDE2
T2 construct: made in house; host or cells: Saccharomyces cerevisiae strain YI34
Description: (§1) Recombinant production of human PDE1B, PDE2, PDE4A, PDE4B, PDE4C, PDE4D, PDE5, and PDE7 was carried out similarly to that described in Example 7 of U.S. Pat. No. 5,702,936, incorporated herein by reference, except that the yeast transformation vector employed, which is derived from the basic ADH2 plasmid described in Price et al., Methods in Enzymology, 185, pp. 308–318 (1990), incorporated yeast ADH2 promoter and terminator sequences and the Saccharomyces cerevisiae host was the protease-deficient strain BJ2–54 deposited on Aug. 31, 1998 with the American Type Culture Collection, Manassas, Va., under accession number ATCC 74465. Transformed host cells were grown in 2×SC-leu medium, pH 6.2, with trace metals, and vitamins. After 24 hours, YEP medium-containing glycerol was added to a final concentration of 2×YET/3% glycerol. […]
(§2) Phosphodiesterase activity of the preparations was determined as follows. […] The [32P]5′-AMP or [32P]5′-GMP then was quantitatively converted to free [32P]phosphate and unlabeled adenosine or guanosine by the action of snake venom 5′-nucleotidase. […] PDE enzyme was present in quantities that yield <30% total hydrolysis of substrate (linear assay conditions). […] After centrifugation (750×g for 3 minutes) to sediment the charcoal, a sample of the supernatant was taken for radioactivity determination in a scintillation counter and the PDE activity was calculated. […]

PDE1B = target: T3, PDE1B (Homo sapiens, UniProt Q01064); assay: Inhibition of PDE1B
T3 construct: made in house; host or cells: Saccharomyces cerevisiae BJ2-54

PDE1C = target: T4, PDE1C (Homo sapiens, UniProt Q14123); assay: Inhibition of PDE1C
T4 construct: Plasmid Hcam3aBB contained the complete open reading frame of PDE1C3; made in house; host or cells: Sf9 (baculovirus)

PDE7 = target: T5, PDE7 (Homo sapiens, UniProt Q13946); assay: Inhibition of PDE7
T5 construct: made in house; host or cells: Saccharomyces cerevisiae BJ2-54
T5 sequence (Q13946 whole entry): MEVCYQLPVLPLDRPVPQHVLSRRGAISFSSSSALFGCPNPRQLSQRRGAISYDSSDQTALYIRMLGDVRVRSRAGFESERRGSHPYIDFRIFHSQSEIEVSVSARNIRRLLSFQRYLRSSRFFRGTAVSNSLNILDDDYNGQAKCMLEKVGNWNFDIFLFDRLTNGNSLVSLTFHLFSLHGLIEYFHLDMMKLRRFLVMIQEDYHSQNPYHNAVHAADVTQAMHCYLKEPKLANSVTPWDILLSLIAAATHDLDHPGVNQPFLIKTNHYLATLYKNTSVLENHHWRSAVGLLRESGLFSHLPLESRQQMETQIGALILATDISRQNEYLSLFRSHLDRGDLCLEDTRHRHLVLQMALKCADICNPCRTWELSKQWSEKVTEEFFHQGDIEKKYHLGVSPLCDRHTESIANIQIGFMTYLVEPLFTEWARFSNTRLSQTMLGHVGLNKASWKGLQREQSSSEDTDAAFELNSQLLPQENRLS
Description: as §1, §2

PDE3A = target: T6, PDE3A (Homo sapiens, UniProt Q14432); assay: Inhibition of PDE3A
T6 construct: Plasmid pBB-PDE3A contained the complete open reading frame of PDE3A; made in house; host or cells: Sf9 (baculovirus)
T6 sequence (Q14432 whole entry): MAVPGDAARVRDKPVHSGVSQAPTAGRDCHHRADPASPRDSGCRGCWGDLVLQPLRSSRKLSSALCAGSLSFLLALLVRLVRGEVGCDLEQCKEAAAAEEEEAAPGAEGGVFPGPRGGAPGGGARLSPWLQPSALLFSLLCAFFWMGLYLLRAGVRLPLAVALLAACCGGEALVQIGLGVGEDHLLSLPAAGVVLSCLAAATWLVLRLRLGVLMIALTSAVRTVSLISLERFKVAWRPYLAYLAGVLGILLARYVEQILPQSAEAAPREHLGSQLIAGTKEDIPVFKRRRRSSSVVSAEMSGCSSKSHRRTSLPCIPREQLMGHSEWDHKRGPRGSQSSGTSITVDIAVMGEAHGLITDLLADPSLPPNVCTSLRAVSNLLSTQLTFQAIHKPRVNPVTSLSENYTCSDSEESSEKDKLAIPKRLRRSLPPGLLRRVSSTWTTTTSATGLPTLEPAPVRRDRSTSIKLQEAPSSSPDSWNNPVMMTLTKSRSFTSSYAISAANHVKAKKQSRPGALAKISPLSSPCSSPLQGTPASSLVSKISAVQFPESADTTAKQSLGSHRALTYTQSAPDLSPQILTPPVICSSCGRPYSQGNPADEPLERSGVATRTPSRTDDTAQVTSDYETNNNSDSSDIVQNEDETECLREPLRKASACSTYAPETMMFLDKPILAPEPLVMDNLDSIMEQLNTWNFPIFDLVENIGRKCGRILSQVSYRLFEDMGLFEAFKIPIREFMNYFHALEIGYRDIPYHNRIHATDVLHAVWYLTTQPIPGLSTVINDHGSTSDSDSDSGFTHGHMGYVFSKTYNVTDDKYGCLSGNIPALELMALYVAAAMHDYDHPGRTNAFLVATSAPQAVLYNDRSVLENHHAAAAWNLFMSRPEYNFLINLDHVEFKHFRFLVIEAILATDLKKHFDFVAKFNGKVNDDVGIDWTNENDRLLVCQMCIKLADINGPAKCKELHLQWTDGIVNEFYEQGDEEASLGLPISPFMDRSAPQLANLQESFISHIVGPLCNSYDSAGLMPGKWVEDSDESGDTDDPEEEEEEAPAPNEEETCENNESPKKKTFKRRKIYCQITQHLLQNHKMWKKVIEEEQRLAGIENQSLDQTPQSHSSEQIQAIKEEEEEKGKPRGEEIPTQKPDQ

T2 sequence (O00408 whole entry): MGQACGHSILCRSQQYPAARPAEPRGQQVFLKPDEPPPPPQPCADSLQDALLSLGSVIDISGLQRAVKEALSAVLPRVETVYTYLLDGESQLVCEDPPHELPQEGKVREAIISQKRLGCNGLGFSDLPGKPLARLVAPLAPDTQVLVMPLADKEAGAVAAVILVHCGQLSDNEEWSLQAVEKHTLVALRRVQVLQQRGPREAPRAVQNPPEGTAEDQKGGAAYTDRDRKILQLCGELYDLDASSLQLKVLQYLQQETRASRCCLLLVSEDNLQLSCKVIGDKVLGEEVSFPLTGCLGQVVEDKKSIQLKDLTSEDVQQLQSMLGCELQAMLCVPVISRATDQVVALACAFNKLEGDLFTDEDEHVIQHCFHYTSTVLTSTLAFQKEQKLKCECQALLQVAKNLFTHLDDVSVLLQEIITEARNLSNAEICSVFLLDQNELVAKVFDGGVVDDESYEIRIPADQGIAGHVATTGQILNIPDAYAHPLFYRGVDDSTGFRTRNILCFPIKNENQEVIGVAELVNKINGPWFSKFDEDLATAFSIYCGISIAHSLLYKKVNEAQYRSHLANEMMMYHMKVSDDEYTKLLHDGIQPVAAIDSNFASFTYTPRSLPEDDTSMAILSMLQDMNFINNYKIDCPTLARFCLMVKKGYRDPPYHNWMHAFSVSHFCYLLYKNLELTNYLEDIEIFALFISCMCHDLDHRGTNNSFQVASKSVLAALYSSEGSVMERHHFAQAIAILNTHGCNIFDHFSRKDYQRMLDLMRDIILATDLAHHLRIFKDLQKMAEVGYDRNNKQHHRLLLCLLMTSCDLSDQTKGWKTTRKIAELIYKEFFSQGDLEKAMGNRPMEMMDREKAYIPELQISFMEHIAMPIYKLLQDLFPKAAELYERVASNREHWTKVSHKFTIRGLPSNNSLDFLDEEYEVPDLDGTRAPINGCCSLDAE

CCOC(=O)c1c(C)nn(-c2cccc([N+](=O)[O-])c2)c1C [Example 2, 3,5-dimethyl-1-(3-nitrophenyl)-1H-pyrazole-4-carboxylic acid ethyl ester]
IC50 (PDE1A): 25.1 µM
IC50 (PDE2): 21.8 µM
IC50 (PDE1B): 25.7 µM
IC50 (PDE1C): 30.2 µM
IC50 (PDE7): 39 µM
IC50 (PDE3A): 137 µM
